Here are results for 80 compounds from publication PMC12040169 (PLOS Biology, 2025).

A short description of one data set: in vitro. The following applies: human, hela cells, % viability.
On to `O=C(Nc1ccccc1N1CCNCC1)C1CCC1` [CBK004755T], for which the viability at 28.5 h, 10 µM stood at 90.9%. On the same count and under the same terms, the result for `C[C@H](Nc1nccnc1-c1ccco1)c1ccccc1` [CBK037032] reads 93.1%. Same read-out and setting: then `Cc1nn(C)c(C(=O)Nc2sc3c(c2C#N)CCC(C)C3)c1Br` (centres unmarked) [CBK304212], with 104%; and `O=S(=O)(Nc1ccc(N2CCNCC2)c2ccccc12)c1ccc(Br)cc1F` [CBK200014C], with 95.4%. The same measure, in the same setting: the result for `COc1ccc(Oc2nccnc2N2CCN(Cc3ccc(Cl)cc3)CC2)cc1OC` [CBK083041T] reads 87.3%; that for `CN(C)Cc1cc(C[C@@H]2C[C@H](NS(=O)(=O)c3ccccc3)C2(C)C)no1` [CBK289307], 112%. Consider `CCN(CC)C(=O)Cn1ncc2c3oc(C)cc3n(C(C)C)c2c1=O` [CBK282848], for which the viability at 28.5 h, 10 µM amounted to 90.7%. The same measure, in the same setting: then `CCCc1cc(C(=O)NC2(CN3CCCC3)CCCCC2)[nH]n1` [CBK282464], with 98.1%; and `Cc1ccc(OCC(=O)Nc2ccccc2CO)cc1` [CBK263600], with 88.7%. Still for that read-out and setting: the result for `CCCc1cc(O)n(-c2nc3ccccc3[nH]2)n1` [CBK270269] reads 82.7%; that for `O=CNC(Cc1ccc(O)c([N+](=O)[O-])c1)C(=O)O` (centres unmarked) [CBK262421], 101%. Regarding `CCOc1ccccc1CNc1ccc(C2c3ccsc3CCN2C(C)=O)cc1` (centres unmarked) [CBK286459], the viability at 28.5 h, 10 µM was 104%. As to `COc1c(Br)cc(Br)cc1/C=C1/SC(=N)NC1=O` [CBK119298], the viability at 28.5 h, 10 µM was determined as 94.4%. Consider `CC(C)c1ccc(N2C(=O)[C@@H]3C[C@@H](NC(=O)c4cccn4C)CCN3C2=O)cc1` [CBK289547], for which the viability at 28.5 h, 10 µM is 92.3%. On the same count and under the same terms, then `Cc1cccc(NC(=O)c2cnc3n(c2=O)CCS3)c1` [CBK287375], with 108%; and `Cc1ccc(NC(=O)N(C)C2CCN(C)C2)cc1` (centres unmarked) [CBK156023], with 103%. Still for that read-out and setting: the result for `CCCc1n[nH]c(C2CN(CCn3cccn3)CCO2)n1` (centres unmarked) [CBK304842] reads 106%; that for `Cc1nnc([C@H]2CCN(Cc3cccs3)C2)o1` [CBK289393], 103%; that for `COc1ccc(N2C(=O)CC(NCCNc3ccc([N+](=O)[O-])cn3)C2=O)cc1` (centres unmarked) [CBK263593], 85.3%. Same read-out and setting: then `OCCN1CCN(c2nc(C3CCOC3)cn3ccnc23)CC1` (centres unmarked) [CBK037931], with 98.5%.

For `C[C@@H]1CN[C@@H](C)CN1Cc1cc(NS(=O)(=O)c2ccccc2Cl)cc2ccoc12` [CBK107211T], the viability at 28.5 h, 10 µM turned out to be 98.6%. The same measure, in the same setting: the result for `CC(C)(C)N=C1c2nn(Cc3ccccc3)nc2C(=NC(C)(C)C)c2nn(Cc3ccccc3)nc21` [CBK261070] reads 103%. The same measure, in the same setting: then `COc1ccc(N2CCN(CC(O)COc3ccc4c(C)cc(=O)oc4c3)CC2)cc1` (centres unmarked) [CBK269847], with 86.5%; and `CC(NCC(O)c1ccco1)c1ccc(C#N)s1` (centres unmarked) [CBK304265], with 85.9%.

For the compound `O=C(O)CCC(=O)N(Cc1ccco1)C1CC(=O)N(c2ccc(F)cc2)C1=O` (centres unmarked) [CBK287059], the viability at 28.5 h, 10 µM was determined as 92.1%. On the same count and under the same terms, the result for `CCN(CC(=O)Nc1c(F)cccc1F)S(=O)(=O)c1cccc(C#N)c1` [CBK306197] reads 85.4%. The same measure, in the same setting: then `COc1ccc(-c2cnc(NCC3CC3)c(C(=O)NCc3ccco3)c2)cc1` [CBK076283], with 96.3%. The same measure, in the same setting: then `COc1ccccc1C1(NC(=O)CCn2cccn2)CCCC1` [CBK283626], with 103%.

Turning to `Nc1cc(=O)[nH]c(SCC(=O)Nc2ccc(S(N)(=O)=O)cc2)n1` [CBK265021], the viability at 28.5 h, 10 µM was 91.2%. On to `COc1ccccc1N1CCN(CCNC(=O)Nc2cccc(C)c2C)CC1` [CBK266839], for which the viability at 28.5 h, 10 µM turned out to be 90.2%. Still for that read-out and setting: the result for `Cc1ccccc1-c1cc(C(=O)NCCCn2cc(Br)cn2)c2ccccc2n1` [CBK267758] reads 97.8%; that for `Cn1c(C(=O)O)cc2cc(Oc3ccccc3)ccc21` [CBK286873], 86.3%; that for `c1ccc(CN2CCN(Cc3c[nH]c(-c4ccccc4)n3)CC2)cc1` [CBK074775], 84.6%. Still for that read-out and setting: the result for `NC(=O)COc1ccccc1O` [CBK261029] reads 111%; that for `O=S(=O)(Nc1nnc(C(F)(F)F)s1)c1ccc(-c2cc(C(F)(F)F)on2)s1` [CBK062019], 91.1%; that for `O=C(CSCc1ccc(Cl)cc1)Nc1ccc(O)cc1C(=O)O` [CBK131694], 97.1%. On the same count and under the same terms, the result for `CC(C)(c1ccc(OC(=O)c2ccc(N)cc2)cc1)c1ccc(OC(=O)c2ccc(N)cc2)cc1` [CBK260962] reads 91.2%; that for `Cc1ccn(CCNC(=O)c2cc3cccc(C)c3nc2C)n1` [CBK282645], 82.3%; that for `CCS(=O)(=O)N1CCc2cc(-c3csc(-c4cnn(C)c4)n3)ccc21` [CBK305560], 93.7%.

In the case of `c1ccc(CN2CCC(NCc3ccco3)C(c3ccccc3)C2)cc1` (centres unmarked) [CBK286167], the viability at 28.5 h, 10 µM stood at 95.4%. Same read-out and setting: the result for `O=C(Nc1ccccc1Br)C1CCCC1` [CBK092059] reads 111%; that for `Cc1[nH]c2ccccc2c1C(=O)CSc1n[nH]c(N)n1` [CBK268056], 98.3%.

With `Cn1ccc(C(=O)NC(Cc2ccsc2)c2ccccn2)cc1=O` (centres unmarked) [CBK285273], the viability at 28.5 h, 10 µM was 97.5%. Still for that read-out and setting: then `O=C(c1cccs1)N1Cc2ccccc2OC2(CCOCC2)C1` [CBK284942], with 103%; and `COc1ccc(Cl)cc1S(=O)(=O)N1CCC(C(N)=O)(N2CCCCC2)CC1` [CBK269571], with 97.9%. Turning to `COc1nccnc1N1CCN(CCc2ccccc2)CC1` [CBK084228], the viability at 28.5 h, 10 µM came out at 102%. Same read-out and setting: the result for `O=C1COc2ccccc2CCCCC2(CCCN(CC(=O)N3CCCC3)C2)CN1` (centres unmarked) [CBK292009] reads 105%.

With `C=CCNC(=O)c1ccc(-c2cccc(N(C)C)c2)nc1NCc1cccnc1` [CBK076566], the viability at 28.5 h, 10 µM is 91.3%. Same read-out and setting: then `CC(=O)NCC1CC(c2ccc(OC(C)=O)c(Cl)n2)=NO1` (centres unmarked) [CBK010396], with 88.8%; and `Cc1cc2ccccc2n2c(SCC(=O)NCC3CCCO3)nnc12` (centres unmarked) [CBK265688], with 103%. Consider `Cc1cccc(-n2nnnc2SC(C)C(=O)O)c1` (centres unmarked) [CBK287003], for which the viability at 28.5 h, 10 µM was determined as 90.1%. Still for that read-out and setting: then `COc1cc(C)c(C)cc1S(=O)(=O)N1[C@@H](c2ccccc2F)C[C@@H]2NC(=O)CCC[C@H]21` [CBK286012], with 112%; and `CC1CCc2c(sc(NC(=O)c3nc4ncccn4n3)c2C(N)=O)C1` (centres unmarked) [CBK267631], with 96.3%; and `O=C(NCN1CCN(c2ccccc2F)CC1)c1cccnc1` [CBK265530], with 90%. As for `O=C(NC(=O)C1CCN(CCc2ccc3c(c2)CCO3)CC1)Nc1ccccc1Cl` [CBK035147], the viability at 28.5 h, 10 µM was 84.3%. Take `C(=N\c1ccc(Cc2ccc(/N=C/c3ccc[nH]3)cc2)cc1)/c1ccc[nH]1` [CBK261282]: the viability at 28.5 h, 10 µM came to 101%.

`CCn1c2ccccc2n2c(SCCC(=O)O)nnc12` [CBK267135]: the viability at 28.5 h, 10 µM was found to be 102%.

As for `O=C(O)c1ccc(CNCCc2c[nH]c3ccccc23)cc1` [CBK287265], the viability at 28.5 h, 10 µM came to 87.6%. Regarding `O=C(O)c1cccnc1SC1CC(=O)N(c2ccc([N+](=O)[O-])cc2)C1=O` (centres unmarked) [CBK263079], the viability at 28.5 h, 10 µM is 100%.

As for `COc1ccc(N(CCN2CCCCC2)S(=O)(=O)c2ccc(C)cc2)cc1` [CBK261131], the viability at 28.5 h, 10 µM amounted to 98.7%.

Regarding `COc1ccc(C2SCCCS2)cc1C(C)(C)C` [CBK018886], the viability at 28.5 h, 10 µM was found to be 105%. Same read-out and setting: then `CC1=NC(O)(C(F)(F)F)C(c2ccccc2)S1` (centres unmarked) [CBK009121], with 87.8%.

`CCC(C)(NC(=O)c1ccn(-c2cc(C)ccc2OC)n1)C(=O)OC` (centres unmarked) [CBK305282]: the viability at 28.5 h, 10 µM stood at 78.7%. On the same count and under the same terms, then `c1cnc2c(OCc3nc4ccccc4[nH]3)cccc2c1` [CBK268556], with 74.6%; and `N#Cc1cccc(Nc2cncc(-c3cccc(C(=O)NCCO)c3)n2)c1` [CBK037810], with 97.1%; and `CS(=O)(=O)c1ccc(-c2ccc(OC3CCN(C(=O)CCCc4ccc(F)cc4)CC3)nc2)cc1` [CBK155044], with 94.8%.

Consider `COc1ccc(N(CC(=O)NC2CC3CCC2C3)S(=O)(=O)c2ccc(C)cc2)cc1` (centres unmarked) [CBK266574], for which the viability at 28.5 h, 10 µM amounted to 108%.

Take `CN(C)CCCNc1c(N)c(=O)oc2ccccc12` [CBK261468]: the viability at 28.5 h, 10 µM was 94.3%. `CC(=O)N1CCC2(C/C=C/C[C@H]3CN(Cc4nccs4)CC[C@H]3NC(=O)CNC2=O)CC1` [CBK292169]: the viability at 28.5 h, 10 µM came to 111%.

For `Cc1nc(CCNC(=O)c2nn(-c3cccc(C(C)C)c3)cc2O)cs1` [CBK305438], the viability at 28.5 h, 10 µM came out at 109%. For the compound `O=S(=O)(NCc1ccco1)N1CCOCC1` [CBK268749], the viability at 28.5 h, 10 µM worked out at 90.2%.

On to `CCOc1cccc(-c2cncc(N[C@H](C)c3ccccc3)n2)c1` [CBK066042], for which the viability at 28.5 h, 10 µM amounted to 103%. The same measure, in the same setting: then `CCOC(=O)c1cnc2ccc(C(CCOCc3ccccc3)OCc3ccccc3)cc2c1O` (centres unmarked) [CBK018405], with 93.8%; and `COc1cccc(-c2cc(C(=O)Nc3nnn[nH]3)c3ccccc3n2)c1` [CBK262640], with 98.6%. Same read-out and setting: the result for `Cc1nn(C)c(C)c1OCC(=O)Nc1nc2c(cc1C#N)CCC2` [CBK306371] reads 81%; that for `O=C(O)c1cccc(-c2cncc(NCc3ccncc3)n2)c1` [CBK037915], 106%; that for `CC1CN(c2cc(CNc3ncccc3Cl)ccn2)CCO1` (centres unmarked) [CBK306456], 88.3%. Still for that read-out and setting: then `C#CCNS(=O)(=O)c1cccc(C(=O)NC2CCN(CCOC)CC2)c1` [CBK305714], with 89%. `COc1ccc2[nH]c3c(c2c1)CCNC31CCN(C(=O)NC(C)(C)C)CC1` [CBK047069]: the viability at 28.5 h, 10 µM is 97.4%.

Staying with this data set, now noted: human, hela cells, % viability, bulk resorufin, single well.
For `Cc1ccc(-c2ccc3c(c2)COC2(CCNCC2)O3)c(C)c1` [CBK060881], the viability at 28.5 h, 10 µM is 89.7%.
